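How tested: cells in 96-well plates exposed to compound for 48 hours at five concentrations. GI50: concentration for 50% inhibition of growth. The concentration for full growth arrest is given as TGI.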
Experiments:
Experiment in all cases: NCI anticancer screen, dose series, 48 h
[1] = test system: 786-0 renal
[2] = test system: ACHN renal
[3] = test system: SK-MEL-2 melanoma
[4] = test system: HT29 colon
[5] = test system: LOX IMVI melanoma
[6] = test system: BT-549 breast
[7] = test system: UACC-62 melanoma
[8] = test system: PC-3 prostate
[9] = test system: SF-295 CNS
[10] = test system: MALME-3M melanoma

| SMILES | GI50 [1] | TGI [1] | GI50 [2] | TGI [2] | GI50 [3] | TGI [3] | GI50 [4] | TGI [4] | GI50 [5] | TGI [5] | GI50 [6] | TGI [6] | GI50 [7] | TGI [7] | GI50 [8] | TGI [8] | GI50 [9] | TGI [9] | GI50 [10] | TGI [10] |
| --- | --- | --- | --- | --- | --- | --- | --- | --- | --- | --- | --- | --- | --- | --- | --- | --- | --- | --- | --- | --- |
| CC/C=C\C[C@H]1C/C=C2/C(=O)C=C[C@@H]2C/C=C\CCCC(=O)O1 | 0.637 µM | 1.89 µM | 0.197 µM | 0.393 µM | 1.86 µM | 4.87 µM | 0.376 µM | 1.27 µM | 0.273 µM | 0.865 µM | 0.674 µM | 3.22 µM | 0.573 µM | 2.37 µM | 1.31 µM | 3.73 µM | 2.17 µM | 5.44 µM | 1.92 µM | 4.86 µM |
| COc1cc(/C=C/c2ccc(OC)c(OC)c2)cc(OC)c1 | – | 44.7 µM | – | 89.8 µM | – | > 100 µM | – | 94.4 µM | – | 41.8 µM | – | 72.3 µM | – | 63.5 µM | – | > 100 µM | – | 68.9 µM | – | > 100 µM |
| O=C1NC(=O)C(CC2CCCCCCCCCCC2=O)C(=O)N1 (configuration not stated) | – | > 100 µM | – | > 100 µM | – | > 100 µM | – | > 100 µM | – | > 100 µM | – | > 100 µM | – | > 100 µM | – | > 100 µM | – | > 100 µM | – | – |
| Cc1ccc2[nH]c(O)c(N=Nc3ccc(S(N)(=O)=O)cc3)c2c1 | 23.5 µM | > 25 µM | 9.74 µM | > 25 µM | > 25 µM | > 25 µM | 12.1 µM | > 25 µM | 13.1 µM | > 25 µM | 9.88 µM | > 18.4 µM | > 23.7 µM | > 25 µM | 11.9 µM | > 25 µM | > 14.9 µM | > 25 µM | > 22.4 µM | > 25 µM |
| CCn1c(-c2ccc(OC(C)=O)cc2)c(C)c2cc(OC(C)=O)ccc21 | – | 86.9 µM | – | > 100 µM | – | 37.2 µM | – | 89.6 µM | – | 30.6 µM | – | 88.8 µM | – | 28.3 µM | – | 44.1 µM | – | 96.7 µM | – | 76 µM |
| CC1=C[C@H]2c3c(c(O)c(O)c4oc(-c5ccccc5)cc(=O)c34)[C@H](c3cc(O)c(O)c4oc(-c5ccccc5)cc(=O)c34)[C@H]2C(C)(C)C1 | 1.71 µM | 7.83 µM | 0.679 µM | 5.67 µM | 1.77 µM | 9.61 µM | 0.888 µM | > 75 µM | 0.395 µM | 1.33 µM | 1.58 µM | 8.59 µM | 0.516 µM | 1.97 µM | 1.44 µM | 14.8 µM | 0.312 µM | 1.76 µM | 1.57 µM | 7.76 µM |
| COc1ccc(C(=O)COc2ccc(/C=C3\COc4ccc(OC)cc4C3=O)cc2)cc1 | 16.7 µM | 37.9 µM | 29.7 µM | > 100 µM | 37.5 µM | > 100 µM | 22.2 µM | > 100 µM | 6.59 µM | 24.2 µM | 16.2 µM | 35.8 µM | 48.9 µM | > 100 µM | 12.8 µM | 47.1 µM | 14.5 µM | 38.1 µM | 57.2 µM | > 100 µM |
| O=C1CSC(c2ccc(Cl)cc2Cl)N1c1ccc(F)cc1 (configuration not stated) | 17.8 µM | 31.7 µM | 17.2 µM | 31.1 µM | 18.9 µM | 38 µM | – | – | 18.2 µM | 34 µM | 18 µM | 32.3 µM | 16.2 µM | 30.5 µM | 18.5 µM | 35.5 µM | 18.3 µM | 37.2 µM | 20.4 µM | 35.5 µM |
| O=C(O)C1C(Br)(c2ccccc2)C1(Br)c1ccccc1 (configuration not stated) | – | > 100 µM | – | 57 µM | – | 80.2 µM | – | 59 µM | – | > 100 µM | – | 49.5 µM | – | 64.3 µM | – | > 100 µM | – | > 100 µM | – | > 100 µM |
| COc1cc(C(=O)c2cc(C)c3[nH]c4ccc(C)cc4c3c2C)cc(OC)c1OC | < 0.01 µM | 3.17 µM | < 0.01 µM | > 100 µM | – | > 100 µM | < 0.01 µM | 1.62 µM | < 0.01 µM | > 100 µM | < 0.01 µM | 2.45 µM | < 0.01 µM | > 100 µM | < 0.01 µM | > 100 µM | < 0.01 µM | – | < 0.01 µM | > 100 µM |
| CC(C)C[C@H](NC(=O)/C=C/Cn1ccc2ccccc2c1=O)B(O)O | 5.03 µM | > 100 µM | 3.33 µM | > 100 µM | 3.12 µM | 23.5 µM | – | – | 2.88 µM | 10.7 µM | 2.67 µM | 13.7 µM | 3.35 µM | 14.9 µM | 17.4 µM | > 100 µM | 2.75 µM | 15.1 µM | 3.82 µM | 23 µM |
| CC(C)(C[C@H]1CN(S(=O)(=O)c2cccc(C(F)(F)F)c2)c2cc(-c3cc(F)cc(OC(F)F)c3)ccc2O1)C(=O)O | 6.98 µM | 20.7 µM | 11.1 µM | 23.1 µM | 4.8 µM | 18.2 µM | 4.01 µM | 15.6 µM | 6.54 µM | 22.5 µM | 5.9 µM | 22.3 µM | – | – | 5.04 µM | 18.9 µM | 4.12 µM | 18.5 µM | 10.2 µM | 25.1 µM |
| O=C(/C=C\c1ccc(NCc2ccc(C(=O)O)cc2)cc1)CCl | 10.2 µM | 23.9 µM | 16.1 µM | 31.6 µM | 15 µM | 30.5 µM | 18.9 µM | 37.8 µM | 2.17 µM | 5.12 µM | 7.95 µM | 21.5 µM | – | – | 14.2 µM | 28.9 µM | 17.5 µM | 34.3 µM | – | – |
| Nc1ccc(-c2nc3ccc(Cc4ccc5nc(-c6ccc(N)cc6)[nH]c5c4)cc3[nH]2)cc1 | 4.52 µM | 31.6 µM | 17.9 µM | 37.5 µM | 12.6 µM | 35.4 µM | 1.89 µM | 4.1 µM | 2.28 µM | 5.32 µM | 9.86 µM | 67.2 µM | 3.59 µM | 17.8 µM | 4.25 µM | 20.1 µM | 12.8 µM | 32.4 µM | 2.04 µM | 4.53 µM |
